Reference: a melting point compilation (Tetko et al.; mined from patent text by program, amines drawn as free bases though some values may be those of a salt)

SMILES | melting point
N=C(N)NC(=O)c1cn([C@H](CO)CCc2ccccc2)cn1 | 111 to 113 °C
Cc1cc2c3c(cc(C)c2[nH]c1=O)CC(CBr)O3 (stereo not drawn) | 277 to 278 °C
CC1(C(=O)O)CCCc2cc(C3CCCCC3)c(Cl)cc21 (stereo not drawn) | 167 to 168 °C
Cc1cc([N+](=O)[O-])cnc1NCCCN | 93 to 95 °C
CC(C)n1cc(C2CCC3(CC2)OCCO3)c2cc(C#N)ccc21 | 114 to 116 °C
CC[C@H]1[C@H](O)[C@@H](C)C(=O)N1c1ccc(C#N)c(Cl)c1 | 120 to 123 °C
ClCc1nccn1Cc1ccccc1 | 180 to 182 °C
OCC1(c2nn(Cc3ccccc3F)c3nccnc23)CC=CO1 (stereo not drawn) | 194 °C
O=C1O[C@H](Cc2ccon2)CN1c1ccc(N2CCC3(CC2)OCCO3)c(F)c1 | 120 to 122 °C
C#CCN(c1ccc(C(=O)NC(CCC(=O)NC(CCC(=O)O)C(=O)O)C(=O)O)cc1)C1CCc2cc3nc(CO)[nH]c(=O)c3cc21 (stereo not drawn) | 172 °C
CCCn1nnn(-c2ccc([N+](=O)[O-])cc2)c1=O | 91.1 °C
CC1(C)SC(=S)N(c2ccccn2)C1O (stereo not drawn) | 80 °C
CCOC(=O)C=C(C)NC(=O)OCc1ccc(Cl)c(Cl)c1 | 83.5 to 85 °C
O=Cc1cc(F)c(O)c(F)c1O | 141 to 143 °C
CCC(CC)Oc1cc([N+](=O)[O-])ccc1N | 62 to 63 °C
Nc1cccc(CSCCNC(=O)c2c(Cl)cccc2Cl)c1 | 55 to 56 °C
Cc1cc(S)n2nc(S(=O)(=O)O)nc2n1 | 254 to 256 °C
Cc1cccc2c(C(=O)O)cn(C)c12 | 243 °C

SMILES | melting point
N#Cc1ncc(-c2ccc(Br)cc2)cn1 | 202 to 204 °C
NC(Cc1c[nH]c2c(F)cccc12)C(=O)O (stereo not drawn) | 256 to 261 °C
NCCCCCCCCOc1cccc2ccccc12 | 90.5 to 92 °C
O=C(CCc1ccc2ccccc2n1)NO | 159 to 160 °C
O=C(Nc1ccc(-c2ccccc2)s1)C1CCCCC1 | 174 °C
OCc1csc(N2CCCC2)n1 | 146 to 148 °C
NS(=O)(=O)c1ccccc1S(N)(=O)=O | 250 °C
CCOC(=O)C1CC(O)CN1C(=O)c1ccc2c(c1)OCO2 (stereo not drawn) | 98 °C
COC(=O)c1ccc2c(c1C(=O)OC)C(=O)OC2=O | 178 to 180 °C
O=c1[nH]c2ccc3c(c2[nH]c1=O)CCCN3 | > 285 °C
O=C1CCCN1c1ccc(CCN2CCN(c3ccccc3Cl)CC2)cc1 | 132 °C
O=C(O)CNC(=O)Cc1ccc(Cl)cc1SC(=O)c1ccccc1 | 158 to 159 °C
O=S(c1ccccc1)c1cccnc1 (stereo not drawn) | 56 °C
COC(=O)CCC(NC(=O)c1cn(C(c2ccccc2)(c2ccccc2)c2ccccc2)c(I)n1)C(=O)OC (stereo not drawn) | 86 to 88 °C
CSC1CCC2C3CCC4=CC(=O)C=CC4(C)C3(F)C(O)CC12C (stereo not drawn) | 235 to 236 °C
Cc1cn(C(C)(C)C(=O)N(C)C)nc1-c1cccc(Cl)c1 | 144 to 146 °C
O=C(Nc1n[nH]c(=S)s1)NC(Cc1ccccc1)C(=O)NCc1ccccc1 (stereo not drawn) | 167 to 170 °C
O=C1C=CC2(C=C1)N=C(N1CCN(Cc3cccc(C(F)(F)F)c3)CC1)C=C2c1ccccc1 | 135 °C

Further lines, results first:

melting point | SMILES
166 to 168 °C | O=C(C=Cc1cccc(Br)c1)c1ccc(OC2CCCCO2)cc1 (stereo not drawn)
108 to 109 °C | CCN(CC)C(=O)n1c(SC(F)(F)C(F)F)nc(-c2ccccc2)c1-c1ccccc1
172 to 173 °C | COc1cccc([C@H]2O[C@H](CC(=O)Nc3cccc(CCC(=O)O)c3)C(=O)N(CC(C)(C)C)c3ccc(Cl)cc32)c1OC
155 to 156 °C | COc1c(OC)c(OC(C)=O)c2ccc(Cl)cc2c1O
268 to 269 °C | COC(=O)Nc1nc(-c2ccccc2)c(-c2nc3ccccc3c(=O)n2-c2cccc(C)c2)s1
169 to 170 °C | CCn1cc(CN(C(=O)C2CCCc3ccc(O)cc32)c2ccc(C(C)C)cc2)cn1 (stereo not drawn)
120 to 124 °C | Cc1cc(F)ccc1-c1nc(NCCO)nc2c1ccc(=O)n2-c1ccccc1F
122 to 123 °C | O=C(c1cccc(C(F)(F)F)c1)N(CCCCc1cccnc1)C1=Nc2cccc3cccc1c23
88 to 90 °C | CCOC(=O)Cc1ccc2c(c1)sc1ccc(Cl)cc12
154 to 156 °C | CC(C#Cc1ccc(OCc2ccccc2)cc1)N(O)C(N)=O (stereo not drawn)
109 to 115 °C | CCN(CC)CCOc1ccc(C2c3cc(OC)ccc3-c3ccc4ccccc4c32)cc1 (stereo not drawn)
155 to 156 °C | O=C1CCC(C(=O)NCc2cccc3ccccc23)c2ccccc21 (stereo not drawn)
235 °C | O=C1NCC(c2ccco2)SCC1N1C(=O)c2ccccc2C1=O (stereo not drawn)
204 °C | Cc1ccc2cccc(OCc3c(Cl)ccc(N(C)C(=O)CN4C(=O)c5ccccc5C4=O)c3Cl)c2n1
154 to 155 °C | CCC1(C)OC(c2ccc(S(N)(=O)=O)cc2)=C(c2ccco2)C1=O (stereo not drawn)
147 to 149 °C | CN1C(=O)CC[C@]2(C)c3ccc(-c4ccc([N+](=O)[O-])s4)cc3CC[C@@H]12
144 to 145 °C | OC(c1cc(-c2ccc(Cl)cc2)c(-c2ccc(Cl)cc2)[nH]1)(C(F)(F)F)C(F)(F)F
256 to 259 °C | CC1NC(=O)NN=C1c1ccc(O)cc1 (stereo not drawn)
84 to 85 °C | CCOCCOC(=O)c1nc2ccc(COc3cccc(OCc4ccc5ccccc5n4)c3)cc2o1

melting point | SMILES
207 to 208 °C | CC1CCN(Cc2ccc(C=CC(=O)Nc3ccc(-c4ccc(Cl)cc4)cc3)cc2)CC1
205 to 207 °C | COc1ccc(-c2cc(=O)c3c(O)c(I)c(OC)cc3o2)cc1
202 °C | CS(=O)(=O)c1c(CC(=O)O)n(Cc2ccc(Cl)cc2)c2ccc(F)cc12
142 to 143 °C | COC(=O)c1snc(-c2ccc([N+](=O)[O-])cc2)c1C(=O)OC
203 to 204 °C | CCOC(=O)CNc1ccc2c3c(n(CCCNC(=O)OC(C)(C)C)c(=O)c2c1)-c1ccccc1C3=O
61 to 63 °C | CC1CCc2ccc3ccccc3c2C1=O (stereo not drawn)
160 °C | O=C(O)C1CCCN1C(=O)c1ccc(-c2ccccc2)cc1 (stereo not drawn)
100 to 103 °C | Oc1ccccc1-c1c(Cl)cccc1Cl
154 to 156 °C | CC(C)C(=O)c1ccc2cc(O)c(O)cc2c1
159 to 160 °C | COc1ccc(C=CC(=O)Nc2c(-c3ccccc3C)c3cc4c(cc3oc2=O)CCC4)cc1OC
254 to 255 °C | COc1ccc2c(c1)c(-c1cc3c(-c4c(C)noc4C)ccnc3[nH]1)cn2C
250 to 252 °C | COc1ccc(C2=C(c3ccc(O)cc3)CCCc3cc(O)ccc32)cc1
227 to 229 °C | Cn1cnc2c1ccn1c(=O)c(-c3ccc(OCc4ccccc4)cc3)cc(C(=O)O)c21
117 to 120 °C | COC(=O)c1ccc(Cc2c[nH]c3ccc(C=O)cc23)c(OC)c1
148 to 149 °C | Cc1c(NC(=O)c2cccc(OCc3ccccc3)c2)ccc2cc(CN3CCCC3)cnc12
> 220 °C | COc1ccc(-c2ccc3c(n2)[nH]c2ccccc23)cc1
84 to 86 °C | FC(F)(F)C(c1ccc(Cl)cc1Cl)c1ccc(Cl)cc1Cl
84.5 to 86.5 °C | COC(=O)c1ccccc1-c1noc(-c2cccc(C(F)(F)F)c2)n1
